Values of other authors, collected in patent publication US20060165788A1, “Lercanidipine pH dependent pulsatile release compositions” (priority 2004, published 2006).

Key:
[1] = for time to maximum concentration (Tmax): form (I) and form (II) compared with each other
[2] = not given; remark: listed apart in the source
Caco-2 cell = Caco-2 cell apparatus

**Q.** Which “time to maximum concentration (Tmax)” value [1] does the source give for `COC(=O)C1=C(C)NC(C)=C(C(=O)OC(C)(C)CN(C)CCC(c2ccccc2)c2ccccc2)C1c1cccc([N+](=O)[O-])c1` (stereo not drawn) [form (II)] here?
**A.** The value was “delayed time of maximum concentration”.

**Q.** And the bioavailability ([1]; form (II) compared to Form (I))?
**A.** Its bioavailability is “higher bioavailability”.

**Q.** What about the “plasma concentration (AUCo-t)” value ([1]; form (II) compared to Form (I)) of the same molecule?
**A.** The value was “higher plasma concentration”.

**Q.** Which “solubility at pH 5” value does the source give for `COC(=O)C1=C(C)NC(C)=C(C(=O)OC(C)(C)CN(C)CCC(c2ccccc2)c2ccccc2)C1c1cccc([N+](=O)[O-])c1.Cl` (stereo not drawn) [Lercanidipine, methyl 1,1,N-trimethyl-N-(3,3-diphenylpropyl)-2-aminoethyl 1,4-dihydro-2,6-dimethyl-4-(3-nitrophenyl)pyridine-3,5-dicarboxylate] here?
**A.** Its value is “less than 20 μg/ml”.

**Q.** And the “increase of amount of lercanidipine absorbed with simultaneous intake of food” value ([2]; in vivo)?
**A.** The value was “between three and four times”.

**Q.** What about the “presystemic first pass elimination” value ([2]; in vivo) of the same molecule?
**A.** The value was “extensive”.

**Q.** What about the “peak plasma level Tmax” value ([2]; oral administration, immediate release form) of the same molecule?
**A.** Its value is 1 to 3 h.

**Q.** And the “permeability, Paap” value (Caco-2 cell)?
**A.** The value was 0.05 ×10⁻⁶ cm/s.

**Q.** For `COC(=O)C1=C(C)NC(C)=C(C(=O)OC(C)(C)CN(C)CCC(c2ccccc2)c2ccccc2)C1c1cccc([N+](=O)[O-])c1` (stereo not drawn) [form (I)], which “time to maximum concentration (Tmax)” value [1] is on record?
**A.** The value was “shorter time to maximum concentration”.
